Measured values as given in publication PMC4628094, “In Vitro Assessment of Uptake and Lysosomal Sequestration of Respiratory Drugs in Alveolar Macrophage Cell Line NR8383” (Pharmaceutical Research, 2015).
Like-named read-outs stand apart in the source and are kept apart here.

How the values were obtained:
[1] = test system: Lung tissue slices from male Wistar rats; set-up: method as in ref (5) (a number printed in a supplementary file, which may have a reference list of its own: not looked up in the article's list); conditions: NH4Cl 20 mM, drug 5 µM, 60 min, ref (5); cited from earlier work
[2] = test system: Liver tissue slices from male Wistar rats; set-up: method as in ref (5) (a number printed in a supplementary file, which may have a reference list of its own: not looked up in the article's list); conditions: NH4Cl 20 mM, drug 5 µM, 60 min, ref (5); cited from earlier work
[3] = test system: Lung tissue slices from male Wistar rats; set-up: method as in ref (8) (a number printed in a supplementary file, which may have a reference list of its own: not looked up in the article's list); conditions: NH4Cl 20 mM, drug 5 µM, 60 min, ref (8); cited from earlier work
[4] = test system: Liver tissue slices from male Wistar rats; set-up: method as in ref (8) (a number printed in a supplementary file, which may have a reference list of its own: not looked up in the article's list); conditions: NH4Cl 20 mM, drug 5 µM, 60 min, ref (8); cited from earlier work
[5] = test system: Lung tissue slices from male Wistar rats; set-up: method as in ref (9) (a number printed in a supplementary file, which may have a reference list of its own: not looked up in the article's list); conditions: NH4Cl 20 mM, drug 5 µM, 60 min, ref (9); cited from earlier work
[6] = test system: Liver tissue slices from male Wistar rats; set-up: method as in ref (9) (a number printed in a supplementary file, which may have a reference list of its own: not looked up in the article's list); conditions: NH4Cl 20 mM, drug 5 µM, 60 min, ref (9); cited from earlier work
[7] = test system: Brain slices from male Wistar rats; set-up: method as in ref (10) (a number printed in a supplementary file, which may have a reference list of its own: not looked up in the article's list); conditions: drug 5 µM, 60 min, ref (10), cited from earlier work; for Reduction in total uptake (%): NH4Cl 20 mM; for Reduction of total uptake (%): monensin 10 µM
[8] = test system: Lung tissue slices from male Wistar rats; set-up: method as in ref (14) (a number printed in a supplementary file, which may have a reference list of its own: not looked up in the article's list); conditions: monensin 10 µM, drug 5 µM, 60 min, ref (14); cited from earlier work
[9] = test system: Liver tissue slices from male Wistar rats; set-up: method as in ref (14) (a number printed in a supplementary file, which may have a reference list of its own: not looked up in the article's list); conditions: monensin 10 µM, drug 5 µM, 60 min, ref (14); cited from earlier work
[10] = test system: Lung granule fraction containing lysosomes from male Wistar rats; set-up: method as in ref (6) (a number printed in a supplementary file, which may have a reference list of its own: not looked up in the article's list); conditions: NH4Cl 10 mM, drug 1 µM, 10 min; ref (6); cited from earlier work
[11] = test system: Lung tissue slices from male Wistar rats; set-up: method as in ref (7) (a number printed in a supplementary file, which may have a reference list of its own: not looked up in the article's list); conditions: NH4Cl 3 mg/min/kg (i.v. infusion), drug 3.2 mg/kg (i.v. injection), 360 min, ref (7); cited from earlier work
[12] = test system: Liver tissue slices from male Wistar rats; set-up: method as in ref (7) (a number printed in a supplementary file, which may have a reference list of its own: not looked up in the article's list); conditions: NH4Cl 3 mg/min/kg (i.v. infusion), drug 3.2 mg/kg (i.v. injection), 360 min, ref (7); cited from earlier work
[13] = test system: Liver tissue slices from male Sprague-Dawley rats; set-up: method as in ref (3) (a number printed in a supplementary file, which may have a reference list of its own: not looked up in the article's list); conditions: desipramine 5 µM, chloroquine 10 µM, 60 min, ref (3), cited from earlier work; for Reduction in total uptake (%): NH4Cl 20 mM
[14] = test system: Hepatocytes isolated from male Wistar rats; conditions: NH4Cl 10 mM, 15 min, ref (2), cited from earlier work
[15] = test system: Lung tissue slices from male Sprague-Dawley rats; conditions: desipramine, diazepam 5 µM, chloroquine, thiopental 10 µM, 60 min, ref (3), cited from earlier work; for Reduction in total uptake (%): NH4Cl 20 mM; for Reduction of total uptake (%): monensin 10 µM
[16] = Physicochemical properties, experimental literature values (Table I); conditions: classification in Table I
[17] = test system: NR8383 cells; conditions: high drug concentrations (50 and 100 μM per method), not stated at the place
[18] = experimental value; ref ([21])-([30]) per drug, Table I; cited from earlier work
[19] = Drug uptake in NR8383 at 37 and 4°C (CLuptake, CLdiff, Kp); conditions: rat
[20] = test system: NR8383 cells; assay: as above; conditions: NR8383, 5 μM; CLdiff relative to CLuptake
[21] = Lysosomal sequestration studies in NR8383 with NH4Cl, monensin and nigericin; conditions: rat; for Kp at 10 min, 5 μM: NR8383, 5 μM drug; for Kp at 10 min, 20 µM: NR8383, 20 µM drug
[22] = test system: NR8383 cells; assay: as above; conditions: for % Reduction in Kp by NH4Cl: NH4Cl 20 mM
[23] = Accumulation (Kp) in NR8383 over a concentration range, two-site binding model; conditions: rat, control
[24] = test system: NR8383 cells; assay: as above; conditions: apparent saturable uptake equilibrium constant, two-site binding model, control
[25] = test system: Mouse peritoneal macrophages; set-up: method as in ref (1) (a number printed in a supplementary file, which may have a reference list of its own: not looked up in the article's list); conditions: drug 50 µM, 120 min, ref (1), cited from earlier work

CN(C)CCC=C1c2ccccc2CCc2ccccc21 [Amitriptyline]
Reduction in total uptake (%) [1]: 63%
Reduction in total uptake (%) [2]: 40%
Reduction in total uptake (%) [3]: 56%
Reduction in total uptake (%) [4]: 68%
Reduction in total uptake (%) [5]: 47%
Reduction in total uptake (%) [6]: 67%
Reduction in total uptake (%) [7]: 32%
Reduction of total uptake (%) [7]: 31%
Reduction of total uptake (%) [8]: 70%
Reduction of total uptake (%) [9]: 48%

OC(CCN1CCCCC1)(c1ccccc1)C1CC2C=CC1C2 (stereo not shown) [Biperiden]
Reduction in total uptake (%) [10]: 56%
Reduction in total uptake (%) [11]: 77%
Reduction in total uptake (%) [12]: 2.5%

CCN(CC)CCCC(C)Nc1ccnc2cc(Cl)ccc12 (stereo not shown) [Chloroquine]
Reduction in total uptake (%) [13]: 53%
Reduction of total uptake (%) ([13]; monensin 10 µM): 44%
Reduction in total uptake (%) [10]: 87%
Reduction in total uptake (%) ([14]; drug 10 µM): 93%
Reduction in total uptake (%) ([14]; drug 100 µM): 77%
Reduction in total uptake (%) [15]: 66%
Reduction of total uptake (%) [15]: 73%

CNCCCN1c2ccccc2CCc2ccccc21 [Desipramine]
Reduction in total uptake (%) [13]: 15%
Reduction in total uptake (%) [15]: 23%
Reduction of total uptake (%) [15]: 12%

COc1ccc(CC(C)NCC(O)c2ccc(O)c(NC=O)c2)cc1 (stereo not shown) [Formoterol]
Acid–base Property [16]: Base
cytotoxicity (LDH) compared to positive control [17]: less than 5%
LogD7.4 [18]: 2.60
Kp at 10 min, 5 μM [19]: 24.5 ± 8.71
Contribution of passive (%) [20]: 3.71%
Kp at 10 min, 5 μM ([21]; Kp + NH4Cl, 20 mM NH4Cl co-incubated, 10 min): 15.5 ± 1.16
Kp at 10 min, 20 µM ([21]; Kp + NH4Cl, 20 mM NH4Cl): 19.2 ± 4.13
Kp at 10 min, 5 μM ([21]; Kp Control, control): 20.8 ± 3.6
Kp at 10 min, 20 µM ([21]; Kp Control, control): 26.5 ± 6.54
% Reduction in Kp by NH4Cl ([22]; NR8383, 5 μM drug): 24 ± 9.0%
% Reduction in Kp by Monensin ([22]; NR8383, 5 μM drug, monensin 5 μM, 5 min): 40 ± 7.5%
% Reduction in Kp by Nigericin ([22]; NR8383, 5 μM drug, nigericin 10 μM, 5 min): 27 ± 5.1 %
% Reduction in Kp by NH4Cl ([22]; NR8383, 20 µM drug): 27 ± 8.1 %
% Reduction in CLuptake by Monensin (5 µM) ([22]; NR8383, at 5 µM drug): 41 ± 5.6%
% Reduction in CLuptake by NH4Cl (20 mM) ([22]; NR8383, at 5 µM drug): 25 ± 14%
% Reduction in CLuptake by Nigericin (10 µM) ([22]; NR8383, at 5 µM drug): 19 ± 12%
% Reduction in CLuptake by NH4Cl (20 mM) ([22]; NR8383, at 20 µM drug): 27 ± 13%
reduction in Kp in the presence of chemical agents (summary in Discussion) ([22]; NR8383, NH4Cl, monensin, nigericin): 20–40%
Kp at 10 min ([23]; Kp,max, sum of Kp,U1,max and Kp,min): 69
Kp at 10 min ([23]; Kp,min, NR8383, 37°C, concentration range, two-site binding model): 10 ± 0.92
KU1 [24]: 1.54 ± 0.49 µM

CN [Methylamine]
Reduction in total uptake (%) ([25]; NH4Cl 10 mM): 54%
Reduction of total uptake (%) ([25]; nigericin 5 µg/ml (~7 µM)): 49%

CN(C)CCCN1c2ccccc2Sc2ccccc21 [Promazine]
Reduction in total uptake (%) [1]: 46.8%
Reduction in total uptake (%) [2]: 59%
Reduction in total uptake (%) [7]: 20%
Reduction of total uptake (%) [7]: 35%
Reduction of total uptake (%) [8]: 71%
Reduction of total uptake (%) [9]: 86%

OC(CCN1CCCCC1)(c1ccccc1)C1CCCCC1 (stereo not shown) [Trihexyphenidyl]
Reduction in total uptake (%) [10]: 54%
Reduction in total uptake (%) [11]: 68%
Reduction in total uptake (%) [12]: 11%
